Data as given in PMC11157048 (Frontiers in Pharmacology, 2024).

Tests used:
[1] = Pharmacokinetics of aumolertinib and HAS-719 in SD rats; settings: for AUC(0-t) / AUC(0-inf) / CL/F / Cmax / Tmax / Vd/F / half-life: Sprague-Dawley, rat, plasma, po, 11 mg/kg; for CL/F: CLz/F; for Vd/F: Vz/F; for half-life: t1/2z
[2] = Pharmacokinetics in AAV8-CYP3A4*1 mice; settings: C57BL/6J, mouse, in vivo, po, 16.5 mg/kg; for CL/F: CLz/F; for Vd/F: Vz/F; for half-life: t1/2z
CYP3A4.1 = CYP3A4.1 (Homo sapiens, UniProt P08684); assay: Enzyme kinetics of aumolertinib, recombinant CYP3A4.1; assay type: in vitro ADME; set-up: made in house; host or cells: Sf21 insect cells (baculovirus); settings: CYP3A4.1, text value
Method: Specifically, first the pFastBac-CYPOR-CYP3A4 and CYPb5 plasmids are constructed, then the plasmids are transformed into DH10Bac cells to obtain the bacmid DNA. Subsequently, the bacmid DNA is transfected into Sf21 insect cells to generate high titer recombinant baculoviruses. After infecting the Sf21 cells with the high titer baculovirus, the cell suspension is collected. Finally, the cells are disrupted by sonication, and the microsomes are prepared by ultracentrifugation. To examine the expression of the target proteins and the CYP content, Western blot analysis and carbon monoxide difference spectroscopy were performed, respectively.
The reaction start, termination and sample processing are the same as described above.

[3] = Pharmacokinetics in AAV8-Ctrl mice; settings: C57BL/6J, mouse, serum, po, 16.5 mg/kg; for CL/F: CLz/F; for Vd/F: Vz/F; for half-life: t1/2z
[4] = Pharmacokinetics in AAV8-CYP3A4*12 mice; settings: C57BL/6J, mouse, serum, po, 16.5 mg/kg; for CL/F: CLz/F; for Vd/F: Vz/F; for half-life: t1/2z
[5] = aumolertinib 11 mg/kg oral alone (Aum)
[6] = carvedilol 5 mg/kg oral 0.5 h before aumolertinib 11 mg/kg oral (Car + Aum)
[7] = telmisartan 8 mg/kg oral 0.5 h before aumolertinib 11 mg/kg oral (Tel + Aum)
[8] = aumolertinib 16.5 mg/kg oral alone (Aum)
[9] = carvedilol 7.5 mg/kg 0.5 h before aumolertinib 16.5 mg/kg oral (Car+Aum)
[10] = telmisartan 12 mg/kg 0.5 h before aumolertinib 16.5 mg/kg oral (Tel+Aum)

CYP3A4.1, sequence (P08684 whole entry): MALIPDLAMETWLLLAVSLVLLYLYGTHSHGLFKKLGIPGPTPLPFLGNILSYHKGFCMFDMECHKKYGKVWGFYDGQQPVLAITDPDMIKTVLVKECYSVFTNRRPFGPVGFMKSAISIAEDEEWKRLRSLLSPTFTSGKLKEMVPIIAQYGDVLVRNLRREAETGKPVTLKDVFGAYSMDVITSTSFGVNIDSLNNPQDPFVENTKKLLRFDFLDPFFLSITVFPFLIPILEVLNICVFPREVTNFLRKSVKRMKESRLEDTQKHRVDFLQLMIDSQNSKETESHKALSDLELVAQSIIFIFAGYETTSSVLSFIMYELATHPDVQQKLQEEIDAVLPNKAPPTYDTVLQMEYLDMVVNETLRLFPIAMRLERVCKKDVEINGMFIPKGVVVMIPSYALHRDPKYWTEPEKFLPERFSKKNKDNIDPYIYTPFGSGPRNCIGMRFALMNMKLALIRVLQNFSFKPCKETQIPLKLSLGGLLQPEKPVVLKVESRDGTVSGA

Q: Which AUC(0-t) [1, 5] does the source give for `C=CC(=O)Nc1cc(Nc2nccc(-c3cn(C4CC4)c4ccccc34)n2)c(OC)cc1N(C)CCN(C)C` [Aumolertinib] here?
A: The AUC(0-t) was 65.9 ± 27.6 ng·h/mL.

Q: What about the AUC(0-t) [1, 6] of the same molecule?
A: Its AUC(0-t) is 198 ± 121 ng·h/mL.

Q: And the AUC(0-t) [1, 7]?
A: The AUC(0-t) was 153 ± 175 ng·h/mL.

Q: And the AUC(0-inf) [1, 5]?
A: Its AUC(0-inf) is 65.9 ± 27.6 ng·h/mL.

Q: What about the AUC(0-inf) [1, 6] of the same molecule?
A: Its AUC(0-inf) is 203 ± 133 ng·h/mL.

Q: And the AUC(0-inf) [1, 7]?
A: The AUC(0-inf) was 153 ± 175 ng·h/mL.

Q: What about the CL/F [1, 5] of the same molecule?
A: The CL/F was 3090 mL/min/kg.

Q: And the CL/F [1, 6]?
A: Its CL/F is 1150 mL/min/kg.

Q: And the CL/F [1, 7]?
A: The CL/F was 2060 mL/min/kg.

Q: What about the Cmax [1, 5] of the same molecule?
A: The Cmax was 9.48 ± 3.93 ng/mL.

Q: And the Cmax [1, 6]?
A: Its Cmax is 21.8 ± 8 ng/mL.

Q: And the Cmax [1, 7]?
A: The Cmax was 8.73 ± 7.55 ng/mL.

Q: And the Tmax [1, 5]?
A: Its Tmax is 5.17 ± 1.33 h.

Q: And the Tmax [1, 6]?
A: Its Tmax is 7.33 ± 2.42 h.

Q: And the Tmax [1, 7]?
A: Its Tmax is 8.67 ± 2.73 h.

Q: What about the Vd/F [1, 5] of the same molecule?
A: The Vd/F was 675 ± 273 L/kg.

Q: What about the Vd/F [1, 6] of the same molecule?
A: Its Vd/F is 375 ± 140 L/kg.

Q: What about the Vd/F [1, 7] of the same molecule?
A: The Vd/F was 582 ± 299 L/kg.

Q: And the half-life [1, 5]?
A: The half-life was 2.62 ± 0.94 h.

Q: What about the half-life [1, 6] of the same molecule?
A: The half-life was 4.44 ± 2.79 h.

Q: And the half-life [1, 7]?
A: The half-life was 3.21 ± 0.24 h.

Q: What about the “increase of AUC(0-t) after combination with carvedilol” value ([1]; carvedilol 5 mg/kg + aumolertinib 11 mg/kg oral vs aumolertinib alone) of the same molecule?
A: The value was “more than 3 time”.

Q: And the AUC(0-t) [2, 8]?
A: The AUC(0-t) was 1370 ng·h/mL.

Q: What about the AUC(0-t) [2, 9] of the same molecule?
A: Its AUC(0-t) is 1730 ng·h/mL.

Q: What about the AUC(0-t) [2, 10] of the same molecule?
A: The AUC(0-t) was 2890 ng·h/mL.

Q: And the AUC(0-inf) [2, 8]?
A: Its AUC(0-inf) is 1390 ng·h/mL.

Q: What about the AUC(0-inf) [2, 9] of the same molecule?
A: Its AUC(0-inf) is 1970 ng·h/mL.

Q: What about the AUC(0-inf) [2, 10] of the same molecule?
A: Its AUC(0-inf) is 3710 ng·h/mL.

Q: What about the CL/F [2, 8] of the same molecule?
A: The CL/F was 221 mL/min/kg.

Q: What about the CL/F [2, 9] of the same molecule?
A: The CL/F was 145 mL/min/kg.

Q: What about the CL/F [2, 10] of the same molecule?
A: The CL/F was 110 mL/min/kg.

Q: What about the Cmax [2, 8] of the same molecule?
A: Its Cmax is 95.4 ± 26.4 ng/mL.

Q: And the Cmax [2, 9]?
A: Its Cmax is 96.5 ± 39 ng/mL.

Q: What about the Cmax [2, 10] of the same molecule?
A: Its Cmax is 154 ± 62.7 ng/mL.

Q: What about the Tmax [2, 8] of the same molecule?
A: Its Tmax is 1.64 ± 1.18 h.

Q: And the Tmax [2, 9]?
A: The Tmax was 11.6 ± 11.7 h.

Q: What about the Tmax [2, 10] of the same molecule?
A: Its Tmax is 16.3 ± 14.1 h.

Q: What about the Vd/F [2, 8] of the same molecule?
A: Its Vd/F is 165 ± 125 L/kg.

Q: And the Vd/F [2, 9]?
A: The Vd/F was 105 ± 73.6 L/kg.

Q: And the Vd/F [2, 10]?
A: Its Vd/F is 49.9 ± 33.6 L/kg.

Q: And the half-life [2, 8]?
A: Its half-life is 7.89 ± 2.76 h.

Q: What about the half-life [2, 9] of the same molecule?
A: Its half-life is 9.63 ± 8.92 h.

Q: What about the half-life [2, 10] of the same molecule?
A: The half-life was 5.75 ± 3.22 h.

Q: What about the Clint (CYP3A4.1) of the same molecule?
A: The Clint was 0.58 μL/min/pmol CYP.

Q: And the Km (CYP3A4.1; human, recombinant CYP3A4.1 cell microsomes (Sf21 insect cells))?
A: The Km was 3.2 µM.

Q: And the AUC(0-t) [3, 8]?
A: The AUC(0-t) was 1800 ng·h/mL.

Q: What about the AUC(0-t) [3, 9] of the same molecule?
A: Its AUC(0-t) is 1970 ng·h/mL.

Q: What about the AUC(0-t) [3, 10] of the same molecule?
A: The AUC(0-t) was 3230 ng·h/mL.

Q: What about the AUC(0-inf) [3, 8] of the same molecule?
A: The AUC(0-inf) was 1850 ng·h/mL.

Q: And the AUC(0-inf) [3, 9]?
A: The AUC(0-inf) was 1980 ng·h/mL.

Q: What about the AUC(0-inf) [3, 10] of the same molecule?
A: The AUC(0-inf) was 3810 ng·h/mL.

Q: What about the CL/F [3, 8] of the same molecule?
A: The CL/F was 148 mL/min/kg.

Q: What about the CL/F [3, 9] of the same molecule?
A: Its CL/F is 145 mL/min/kg.

Q: And the CL/F [3, 10]?
A: Its CL/F is 83 mL/min/kg.

Q: And the Cmax [3, 8]?
A: Its Cmax is 177 ± 59.9 ng/mL.

Q: And the Cmax [3, 9]?
A: Its Cmax is 99.8 ± 27.5 ng/mL.

Q: What about the Cmax [3, 10] of the same molecule?
A: Its Cmax is 163 ± 65.6 ng/mL.

Q: What about the Tmax [3, 8] of the same molecule?
A: The Tmax was 1.29 ± 0.49 h.

Q: And the Tmax [3, 9]?
A: Its Tmax is 17.7 ± 10.7 h.

Q: What about the Tmax [3, 10] of the same molecule?
A: Its Tmax is 2.43 ± 1.13 h.

Q: What about the Vd/F [3, 8] of the same molecule?
A: The Vd/F was 98.8 ± 56.3 L/kg.

Q: And the Vd/F [3, 9]?
A: The Vd/F was 38.6 ± 23.7 L/kg.

Q: What about the Vd/F [3, 10] of the same molecule?
A: The Vd/F was 68.2 ± 44.6 L/kg.

Q: And the half-life [3, 8]?
A: The half-life was 8.21 ± 5.1 h.

Q: What about the half-life [3, 9] of the same molecule?
A: The half-life was 3.12 ± 1.79 h.

Q: What about the half-life [3, 10] of the same molecule?
A: Its half-life is 9.43 ± 4.77 h.

Q: What about the AUC(0-t) [4, 8] of the same molecule?
A: The AUC(0-t) was 3300 ng·h/mL.

Q: And the AUC(0-t) [4, 9]?
A: Its AUC(0-t) is 2480 ng·h/mL.

Q: And the AUC(0-t) [4, 10]?
A: Its AUC(0-t) is 4460 ng·h/mL.

Q: And the AUC(0-inf) [4, 8]?
A: Its AUC(0-inf) is 3460 ng·h/mL.

Q: What about the AUC(0-inf) [4, 9] of the same molecule?
A: Its AUC(0-inf) is 2510 ng·h/mL.

Q: And the AUC(0-inf) [4, 10]?
A: The AUC(0-inf) was 8020 ng·h/mL.

Q: What about the CL/F [4, 8] of the same molecule?
A: Its CL/F is 87.2 mL/min/kg.

Q: And the CL/F [4, 9]?
A: Its CL/F is 124 mL/min/kg.

Q: And the CL/F [4, 10]?
A: Its CL/F is 51.3 mL/min/kg.

Q: And the Cmax [4, 8]?
A: The Cmax was 194 ± 48.8 ng/mL.

Q: What about the Cmax [4, 9] of the same molecule?
A: Its Cmax is 143 ± 102 ng/mL.

Q: What about the Cmax [4, 10] of the same molecule?
A: Its Cmax is 186 ± 74.4 ng/mL.

Q: What about the Tmax [4, 8] of the same molecule?
A: Its Tmax is 5.14 ± 8.32 h.

Q: And the Tmax [4, 9]?
A: The Tmax was 8 ± 7.57 h.

Q: What about the Tmax [4, 10] of the same molecule?
A: The Tmax was 9.43 ± 10.2 h.

Q: And the Vd/F [4, 8]?
A: The Vd/F was 83.2 ± 30.5 L/kg.

Q: And the Vd/F [4, 9]?
A: The Vd/F was 70.4 ± 38.6 L/kg.

Q: What about the Vd/F [4, 10] of the same molecule?
A: The Vd/F was 90.3 ± 85 L/kg.

Q: What about the half-life [4, 8] of the same molecule?
A: Its half-life is 11.9 ± 5.16 h.

Q: And the half-life [4, 9]?
A: The half-life was 6.44 ± 2.34 h.

Q: What about the half-life [4, 10] of the same molecule?
A: The half-life was 29.1 ± 28.9 h.
